Measured values published in US20250235460A1, “COMBINATION THERAPY USING GLUCOSE-DEPENDENT INSULINOTROPIC POLYPEPTIDE RECEPTOR ANTAGONIST COMPOUNDS AND GLP-1 RECEPTOR AGONIST COMPOUNDS” (Pfizer Inc., priority 2024, published 2025).

Assays:
[1] = molecular target: human GLP-1R (Homo sapiens, UniProt P43220, G168S); assay: CHO GLP-1R Clone H6 cAMP HTRF agonist assay (Assay 1, high receptor density); format: cell-based; conditions: for EC50: CHO GLP-1R clone H6, cAMP HTRF, geometric mean; for Emax: read-out: Assay 1 Emax (%)
In short: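 Replicate runs were pooled. Potencies were averaged geometrically and maximal efficacies arithmetically, then rounded to two significant figures.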

[2] = molecular target: human GLP-1R (Homo sapiens, UniProt P43220, L260F); assay: CHO GLP-1R Clone C6 cAMP HTRF agonist assay (Assay 2, low receptor density); format: cell-based; conditions: for EC50: CHO GLP-1R clone C6, cAMP HTRF, geometric mean; for Emax: CHO GLP-1R clone C6, arithmetic mean, relative to saturating GLP-1 (1 μM)
From the text: In Table 5 and Table 6, assay data are presented to two (2) significant figures as the geometric mean (EC50s) and arithmetic mean (Emax) based on the number of replicates listed (Number). A blank cell means there was no data for that Example or the Emax was not calculated.

[3] = CHO GLP-1R clone H6, arithmetic mean, relative to saturating GLP-1 (1 μM)

human GLP-1R (Homo sapiens, UniProt P43220, G168S), sequence (P43220 24-463 G168S): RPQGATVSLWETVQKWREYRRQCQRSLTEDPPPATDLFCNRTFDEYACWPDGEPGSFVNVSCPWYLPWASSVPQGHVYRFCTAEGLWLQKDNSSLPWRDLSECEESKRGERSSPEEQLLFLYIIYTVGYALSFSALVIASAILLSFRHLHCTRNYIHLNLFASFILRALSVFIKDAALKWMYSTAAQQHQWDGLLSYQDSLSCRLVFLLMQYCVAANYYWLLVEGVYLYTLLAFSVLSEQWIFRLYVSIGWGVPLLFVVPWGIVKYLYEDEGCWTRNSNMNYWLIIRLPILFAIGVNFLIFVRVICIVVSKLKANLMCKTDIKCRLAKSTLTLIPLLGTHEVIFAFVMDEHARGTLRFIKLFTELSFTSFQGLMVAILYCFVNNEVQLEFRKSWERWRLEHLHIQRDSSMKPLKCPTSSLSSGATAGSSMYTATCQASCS
human GLP-1R (Homo sapiens, UniProt P43220, L260F), sequence (P43220 24-463 L260F): as the sequence (P43220 24-463 G168S) above, with S145G, L237F counted along it

With O=C(O)c1ccc2nc(CN3CCC(c4cccc(OCc5ccc(F)cc5F)n4)CC3)n(Cc3cnco3)c2c1 [Compound 157B, 2-[(4-{6-[(2,4-difluorobenzyl)oxy]pyridin-2-yl}piperidin-1-yl)methyl]-1-(1,3-oxazol-5-ylmethyl)-1H-benzimidazole-6-carboxylic acid] the EC50 [1] was 0.0085 µM, the Emax [1, 3] was 88% and the EC50 [2] was 0.22 µM. It also gave an Emax [2] of 110%.

With O=C(O)c1ccc2nc(CN3CCN(c4cccc(OCc5ccc(Cl)cc5F)n4)CC3)n(Cc3cnco3)c2c1 [Compound 158B, 2-[(4-{6-[(4-chloro-2-fluorobenzyl)oxy]pyridin-2-yl}piperazin-1-yl)methyl]-1-(1,3-oxazol-5-ylmethyl)-1H-benzimidazole-6-carboxylic acid] the EC50 [1] was 0.014 µM, the Emax [1, 3] was 72% and the EC50 [2] was 0.19 µM. The Emax [2] was 83%.

CCn1nncc1Cn1c(CN2CCN(c3cccc(OCc4ccc(C#N)cc4F)n3)CC2)nc2ccc(C(=O)O)cc21 [Compound 159B, 2-[(4-{6-[(4-cyano-2-fluorobenzyl)oxy]pyridin-2-yl}piperazin-1-yl)methyl]-1-[(1-ethyl-1H-1,2,3-triazol-5-yl)methyl]-1H-benzimidazole-6-carboxylic acid] was tested, and the EC50 [1] was 0.0005 µM, the Emax [1, 3] was 73% and the EC50 [2] was 0.022 µM.

Work on N#Cc1ccc(COc2cccc(C3CCN(Cc4nc5ccc(C(=O)O)cc5n4Cc4ccon4)CC3)n2)c(F)c1 [Compound 161B, 2-[(4-{6-[(4-cyano-2-fluorobenzyl)oxy]pyridin-2-yl}piperidin-1-yl)methyl]-1-(1,2-oxazol-3-ylmethyl)-1H-benzimidazole-6-carboxylic acid] yielded an EC50 [1] of 0.0011 µM, an Emax [1, 3] of 79% and an EC50 [2] of 0.013 µM. The Emax [2] was 100%.

Compound CCn1cncc1Cn1c(CN2CCC(c3cccc(OCc4ccc(C#N)cc4F)n3)CC2)nc2ccc(C(=O)O)cc21 [Compound 162B, 2-[(4-{6-[(4-cyano-2-fluorobenzyl)oxy]pyridin-2-yl}piperidin-1-yl)methyl]-1-[(1-ethyl-1H-imidazol-5-yl)methyl]-1H-benzimidazole-6-carboxylic acid] has an EC50 [1] of 0.00034 µM, an Emax [1, 3] of 78% and an EC50 [2] of 0.0074 µM. The Emax [2] was 94%.

For CCn1nncc1Cn1c(CN2CCC(c3cccc(OCc4ccc(C#N)cc4F)n3)CC2)nc2ccc(C(=O)O)cc21 [Compound 164B, 2-[(4-{6-[(4-cyano-2-fluorobenzyl)oxy]pyridin-2-yl}piperidin-1-yl)methyl]-1-[(1-ethyl-1H-1,2,3-triazol-5-yl)methyl]-1H-benzimidazole-6-carboxylic acid], the EC50 [1] was 0.0032 µM, the EC50 [2] was 0.055 µM and the Emax [2] was 86%.

O=C(O)c1ccc2nc(CN3CCC(c4cccc(OCc5ccc(Cl)cc5F)n4)CC3)n(Cc3ncco3)c2n1 [Compound 167B, 2-[(4-{6-[(4-chloro-2-fluorobenzyl)oxy]pyridin-2-yl}piperidin-1-yl)methyl]-3-(1,3-oxazol-2-ylmethyl)-3H-imidazo[4,5-b]pyridine-5-carboxylic acid] showed an EC50 [1] of 0.018 µM, an Emax [1, 3] of 84% and an EC50 [2] of 0.35 µM. The Emax [2] was 77%.

With N#Cc1ccc(COc2cccc(C3CCN(Cc4nc5ccc(C(=O)O)nc5n4Cc4ncco4)CC3)n2)c(F)c1 [Compound 168B, 2-[(4-{6-[(4-cyano-2-fluorobenzyl)oxy]pyridin-2-yl}piperidin-1-yl)methyl]-3-(1,3-oxazol-2-ylmethyl)-3H-imidazo[4,5-b]pyridine-5-carboxylic acid] the “Assay 1 Emax (%)” value [1, 3] was 79%, the EC50 [2] was 1.7 µM and the Emax [2] was 88%.

Work on COCCn1c(CN2CCC(c3cccc(OCc4ccc(Cl)cc4F)n3)CC2)nc2ccc(C(=O)O)c(F)c21 [Compound 170B, 2-[(4-{6-[(4-chloro-2-fluorobenzyl)oxy]pyridin-2-yl}piperidin-1-yl)methyl]-7-fluoro-1-(2-methoxyethyl)-1H-benzimidazole-6-carboxylic acid] yielded an EC50 [1] of 0.079 µM, an Emax [1, 3] of 81% and an EC50 [2] of 4 µM. For the same compound, the Emax [2] was 75%.

COCCn1c(CN2CCN(c3ccc(F)c(OCc4ccc(C#N)cc4)n3)C[C@@H]2C)nc2ccc(C(=O)O)cc21 [Compound 175B, 2-{[(2S)-4-{6-[(4-cyanobenzyl)oxy]-5-fluoropyridin-2-yl}-2-methylpiperazin-1-yl]methyl}-1-(2-methoxyethyl)-1H-benzimidazole-6-carboxylic acid] showed an EC50 [1] of 0.17 µM, an Emax [1, 3] of 78% and an EC50 [2] of 2.1 µM. It also gave an Emax [2] of 71%.

For COCCn1c(CN2CCN(c3cccc(OCc4ccc(Cl)cc4F)n3)[C@@H](C)C2)nc2ccc(C(=O)O)cc21 [Compound 183B, 2-{[(3S)-4-{6-[(4-chloro-2-fluorobenzyl)oxy]pyridin-2-yl}-3-methylpiperazin-1-yl]methyl}-1-(2-methoxyethyl)-1H-benzimidazole-6-carboxylic acid], the EC50 [1] was 0.18 µM, the Emax [1, 3] was 78% and the EC50 [2] was 3.5 µM. The Emax [2] was 90%.

With COCCn1c(CN2CCN(c3cccc(OCc4ccc(Cl)cc4F)n3)[C@H](C)C2)nc2ccc(C(=O)O)cc21 [Compound 184B, 2-{[(3R)-4-{6-[(4-chloro-2-fluorobenzyl)oxy]pyridin-2-yl}-3-methylpiperazin-1-yl]methyl}-1-(2-methoxyethyl)-1H-benzimidazole-6-carboxylic acid] the EC50 [1] was 0.0032 µM, the Emax [1, 3] was 77% and the EC50 [2] was 0.043 µM. It also gave an Emax [2] of 84%.

For COCCn1c(CN2CCN(c3cccc(OCc4ccc(Cl)cc4F)n3)[C@@H](CO)C2)nc2ccc(C(=O)O)cc21 [Compound 185B, 2-{[(3R)-4-{6-[(4-chloro-2-fluorobenzyl)oxy]pyridin-2-yl}-3-(hydroxymethyl)piperazin-1-yl]methyl}-1-(2-methoxyethyl)-1H-benzimidazole-6-carboxylic acid], the EC50 [1] was 0.00034 µM, the Emax [1, 3] was 89% and the EC50 [2] was 0.0022 µM. It also gave an Emax [2] of 97%.

Compound CCCn1cnnc1Cn1c(CN2CCC(c3cccc(OCc4ccc(Cl)cc4F)n3)CC2)nc2ccc(C(=O)O)cc21 [Compound 187B, 2-[(4-{6-[(4-chloro-2-fluorobenzyl)oxy]pyridin-2-yl}piperidin-1-yl)methyl]-1-[(4-propyl-4H-1,2,4-triazol-3-yl)methyl]-1H-benzimidazole-6-carboxylic acid] has an EC50 [1] of 0.049 µM, an Emax [1, 3] of 71% and an EC50 [2] of 2.1 µM.

Cn1cnnc1Cn1c(CN2CCC(c3cccc(OCc4ccc(C#N)cc4F)n3)CC2)nc2ccc(C(=O)O)cc21 [Compound 188B, 2-[(4-{6-[(4-cyano-2-fluorobenzyl)oxy]pyridin-2-yl}piperidin-1-yl)methyl]-1-[(4-methyl-4H-1,2,4-triazol-3-yl)methyl]-1H-benzimidazole-6-carboxylic acid] showed an EC50 [1] of 0.0024 µM, an Emax [1, 3] of 71% and an EC50 [2] of 0.038 µM. The Emax [2] was 83%.

CO[C@H]1C[C@@H](Cn2c(CN3CCC(c4cccc(OCc5ccc(Cl)cc5F)n4)CC3)nc3ccc(C(=O)O)cc32)C1 [Compound 195B, 2-[(4-{6-[(4-chloro-2-fluorobenzyl)oxy]pyridin-2-yl}piperidin-1-yl)methyl]-1-[(cis-3-methoxycyclobutyl)methyl]-1H-benzimidazole-6-carboxylic acid] showed an EC50 [1] of 0.11 µM, an Emax [1, 3] of 68% and an EC50 [2] of 4.4 µM. For the same compound, the Emax [2] was 110%.
